Experimental data published in article PMC5748155 (Journal of medicinal chemistry, 2017).

Key:
Details in all cases: relative to compound 2
[1] = tested on: HCV replicon D168V variant; assay type: cell-based, Hepatitis C virus
[2] = tested on: NS3/4A protease WT and variants; experiment: Enzyme inhibition assays, statements across WT protease and variants; assay type: biochemical, Hepatitis C virus
GT1a WT NS3/4A Protease = GT1a WT NS3/4A Protease (Hepatitis C virus genotype 1a, UniProt P27958); experiment: Enzyme inhibition assay, wild-type GT1a protease; assay type: biochemical
wild-type HCV replicon = assay type: cell-based, Hepatitis C virus
[3] = tested on: HCV replicon D168A variant; assay type: cell-based, Hepatitis C virus

With `COc1ccc2nc(C)c(O[C@@H]3C[C@H]4C(=O)N[C@]5(C(=O)NS(=O)(=O)C6CC6)C[C@H]5/C=C\CCCCC[C@H](NC(=O)OC(C)(C)C)C(=O)N4C3)nc2c1` [Compound 18b] the “fold improvement in replicon potency against D168V variant” value [1] was ~ 2 fold.

In the case of `CCc1nc2ccccc2nc1O[C@@H]1C[C@H]2C(=O)N[C@]3(C(=O)NS(=O)(=O)C4CC4)C[C@H]3/C=C\CCCCC[C@H](NC(=O)OC(C)(C)C)C(=O)N2C1` [Compound 18g], the “fold decrease in biochemical potency” value [2] is reported as “about 2 fold”.

In the case of `CCc1nc2ccc(OC)cc2nc1O[C@@H]1C[C@H]2C(=O)N[C@]3(C(=O)NS(=O)(=O)C4CC4)C[C@H]3/C=C\CCCCC[C@H](NC(=O)OC3CCCC3)C(=O)N2C1` [Compound 22a, Cyclopentyl ((2R,6S,13aS,14aR,16aS,Z)-14a-((cyclopropylsulfonyl)carbamoyl)-2-((3-ethyl-7-methoxyquinoxalin-2-yl)oxy)-5,16-dioxo-1,2,3,5,6,7,8,9,10,11,13a,14,14a,15,16,16a-hexadecahydrocyclopropa[e]pyrrolo[1,2-a][1,4]diazacyclopentadecin-6-yl)carbamate], the “fold increase in biochemical potency against WT protease” value (GT1a WT NS3/4A Protease) is reported as 2 fold, the “fold enhanced replicon potency against WT HCV” value (wild-type HCV replicon) is reported as 2 fold and the “fold enhanced replicon potency against D168A variant” value [3] is reported as 2 fold.
